Each structure is given as a SMILES string. Activity calls are given as the source filed them. How the calls were made is not given here.

The assay has as its system VEEV TC-83 virus titer reduction in cells. Nature of the assay: VEEV TC-83 titer reduction, cell-based, secondary screen, TC-83 strain, set 4 (AID 651578). To be noted: at 5 µM; stronger effect = lower value.

Take `CCN1CCN(Cc2nc3ccc([N+](=O)[O-])cc3c(=O)n2-c2ccccc2F)CC1`: the log virus titer change was -3.36.

Regarding `COc1cccc(-n2c(CN3CCNCC3)nc3ccc([N+](=O)[O-])cc3c2=O)c1`, the log virus titer change was -0.354 (inactive).

As for `COc1ccc(-n2c(CN3CCNCC3)nc3ccc([N+](=O)[O-])cc3c2=O)cc1`, the log virus titer change is -7.41.

`O=c1c2cc([N+](=O)[O-])ccc2nc(CN2CCNCC2)n1-c1ccsc1`: the log virus titer change was -0.997 (inactive).
